“And” between values parts separate entries of the source, which are not always exact repeats. Identical values can stand only once.
Columns and labels:
[1] = system: reconstructed melanized human epidermis; assay: Pigmentation test: biochemical quantification of the melanic content; assay type: cell-based; settings: α-MSH 100 nM
Description: 1. —Materials and Methods
The BB product is diluted in ethanol then incorporated into a cosmetic formulation.
a—BB product incorporated in formulation at 0.05%
b—BB product incorporated in formulation at 0.15%
c—BB product incorporated in formulation at 0.30%
They are conserved at 4° C. until use thereof.
2. —Biochemical Assessment
At the end of the incubation, the melanin contained in cell lysates was quantified by a spectrophotometrical method. A range of melanin was carried out in parallel with the assay.
The results are expressed in […] of melanin per ml of lysate of the cell carpets (average +/−standard deviation SD).
The statistical significance of the observed differences between the conditions <<treated >> and <<controls >> was assessed by variance analysis to a factor (One Way ANOVA) followed by a test of Bonferroni t-test (*:p<0.05;**:p<0.01).

[2] = system: reconstructed melanized human epidermal skins; assay: Pigmentation test: melanic content by image analysis (Fontana Masson); assay type: cell-based; settings: WITHOUT UV; α-MSH 100 nM
Description: 3. —Histological Assessment
The epidermis skins ware fixed in formaldehyde from the end of incubation, then embedded in paraffin blocs. Subsequently sections of 4 μm thickness were cut.
Said slides by condition were carried out with a magnification ×400. The visualisable melanin on these slides was quantified by image analysis using the Image J program.
The results are expressed in form of the surface occupied by the melanin (number of pixels the grey scale of which is between 0 and 100; 0=black/255=white) in each slide (average +/−standard deviation, SD).
The statistical significance of the noted differences between the treated conditions and controls was assessed by a Student's test (*: p<0.05, **: p<0.01; ***: p<0.001).

[3] = system: human keratinocytes in senescence; assay: Transport of lipids (choline), human keratinocytes in senescence; assay type: cell-based; settings: for Capture of [^3H]choline: DPA 1 mM
Description: (§1) The obtained microsomes from human keratinocytes in culture were rinsed 3 times with 25 mM Tris buffer, then preincubated in 1 ml of the same buffer for 30 minutes at 37° C. This solution was then discarded and the microsomes were placed into the 25 mM Tris buffer containing [^3H] Choline with stirring in a water bath at 37° C. The capture of choline was stopped by addition of a lysis buffer containing (50 mM de Tris, 140 mM NaCl, 1.5 mM MgSO4, 0.5% Igepal-Ca-630, 0.2% SDS). The kinetics of incubation was performed between 30 and 120 seconds. Subsequently, the microsomes were rinsed 2 times with PBS then dissolved in NaOH (1M) at 4° C. over night. The radioactivity was determined with a scintillation counter.
7.3—Assessment of the Rate of Transport of Macromolecules at the Level of Human Keratinocytes in Senescence
The senescence is a phenomenon of cellular aging, where the cells are arrested in the phase G1 of the cell cycle and never enter the synthesis phase leading to the cell division. Senescent cells are characterized by their slow metabolism at synthesis and transport of macromolecules levels.
The cells in culture deprived of serum stop their growth, but continue to progress through the cell cycle until they reach the phase G1.
The assays were performed on keratinocytes, between the 8th and the 10th passage, in order to ensure the presence of senescent cells at control cells level.
The keratinocytes were seeded in multiwell plates (6 wells) at a rate of 10^5 cells per well in 3 ml of culture medium […] supplemented with EGF, hydrocortisone, insulin and gentamicyn. Afterwards they are maintained for 5 days in incubator under CO2.
7.3.2—Transport of Lipids
(§2) The membrane microsomes were separated by differential centrifugation.
The same protocol of capture of [3H] Choline was applied to the determination of the rate of transport of choline (cf. 6.1.2)

[4] = system: normal human keratinocytes; assay: Transport of lipids (choline), normal human keratinocytes; assay type: cell-based; settings: for Capture of [^3H]choline: DPA 1 mM
Description: as §1
7.2—Assessment of the Rate of Transport of Macromolecules at the Level of Normal Human Keratinocytes
The applied method was that of explants allowing to obtain, from a biopsy of human skin, keratinocytes in primary cultures. The assays were carried out on keratinocytes between the 2nd and the 4th passage in order to ensure a reproductibility between the different experiences.
The keratinocytes were divided into multiwell plates (6 wells) at a rate of 10^5 cells per well in 1 ml of culture medium […] supplemented with insulin and hydrocortisone. The cells were incubated in the presence and absence of the investigated product.
7.2.2—Transport of Lipids
as §2
The same protocol of capture of [3H] choline was used for the determination of the speed of transport of choline (cf. 6.1.2)

[5] = system: microsomes of human keratinocytes; assay: Transport of lipids (choline), direct treatment of isolated microsomes; assay type: biochemical; settings: for Capture of [^3H]choline: DPA 1 mM
Source text: 7.1—Assessment of the Rate of Transport of Macromolecules (Glucids, Lipids and Proteins) in a System of Isolated Microsomes. Direct Effect of the BB Product on Isolated Microsomes:
The microsomes of human keratinocytes form a membrane fraction obtained by high-speed differential centrifugation of a cell homogenate. This preparation of microsomes requires the addition of exogenous cofactors such as NADPH.
7.1.2—Transport of Lipids
as §1
The protein assay was carried out following the BRADFORD method. The increase in absorbance at 595 nm, determined with a spectrophotometer, is proportional to the protein concentration.

α-MSH
Melanin, % medium alone ([1]; +UVA): 141% | Melanin, Average ([1]; +UVA): 96.1 µg/mL | Melanin, single values ([1]; +UVA): 95.6 µg/mL and 84.7 µg/mL and 107.9 µg/mL | Melanin, % medium alone ([1]; +UVB): 128% | Melanin, Average ([1]; +UVB): 106.5 µg/mL | Melanin, single values ([1]; +UVB): 99.5 µg/mL and 115.5 µg/mL and 104.6 µg/mL | Melanin, % medium alone ([1]; WITHOUT UV): 141% | Melanin, Average ([1]; WITHOUT UV): 80.7 µg/mL | Melanin, single values ([1]; WITHOUT UV): 70.3 µg/mL and 86.9 µg/mL and 85 µg/mL | Surface occupied by the melanin, % medium alone [2]: 208% | Surface occupied by the melanin, Average [2]: 40277.8 pixels

CN(C)CCOC(c1ccccc1)c1ccccc1 [DPA, Diphenhydramin]
Capture of [^3H]choline ([3]; 30 s): 55 pmol/mg of proteins | Capture of [^3H]choline ([3]; 60 s): 79 pmol/mg of proteins | Capture of [^3H]choline ([3]; 120 s): 119 pmol/mg of proteins | rate of transport of lipids (in words) ([3]; Diphenhydramin 1 mM alone): strongly inhibits | Capture of [^3H]choline ([4]; 30 s): 92 pmol/mg proteins | Capture of [^3H]choline ([4]; 60 s): 115 pmol/mg proteins | Capture of [^3H]choline ([4]; 90 s): 143 pmol/mg proteins | Capture of [^3H]choline ([4]; 120 s): 156 pmol/mg proteins | rate of transport of lipids (in words) ([4]; Diphenhydramin 1 mM alone): moderately inhibits | Capture of [^3H]choline ([5]; 30 s): 74 pmol/mg proteins | Capture of [^3H]choline ([5]; 60 s): 105 pmol/mg proteins | Capture of [^3H]choline ([5]; 90 s): 132 pmol/mg proteins | Capture of [^3H]choline ([5]; 120 s): 142 pmol/mg proteins | rate of transport of lipids (in words) ([5]; Diphenhydramin 1 mM alone): strongly inhibits

Source: US20080089851A1, “Brown Algae Cell Lyophilisate, Method For The Obtention Thereof” (BIOTECHMARINE, priority 2005, published 2008)
